Reference: patent US7709532B2, “Methods for improving bioavailability of a renin inhibitor” (Novartis AG, priority 2004, dated 2010)
Blank lines part the entries; values can stand above or below the compound they belong to.

Legend:
[1] = in vitro; details: human, Caco-2
From the text: (§1) Alternatively, the in vitro transporter affinity of a drug substance can be determined and approximated by a Caco-2 cell assay as described, e.g., in Camenisch et al., Pharm. Act. Helv. 71, 309-327 (1996), or as illustrated herein in the Examples. The identification of the transporter protein and the efficacy of a compound to inhibit the efflux system involved may as well be determined in the Caco-2 cell assay.
(§2) Caco-2 cell monolayers grown on PET filters for 21-25 days are used for the transport experiments. The flux of compounds across Caco-2 cell monolayers grown on PET filters as well as across PET filters alone without Caco-2 cells is determined as follows: Prior to the transport experiment, the culture medium in the acceptor compartment (0.2 mL for apical and 1.0 mL for basolateral sides) is replaced with acceptor solution (HBSS, when relevant containing the inhibitor of interest) preincubated at 37° C. To start the experiment, the medium in the donor compartment (0.35 mL for apical and 1.15 mL for basolateral sides) is replaced with donor solution (compound in HBSS, when relevant containing inhibitor of interest) pre-incubated at 37° C. Aliquots of 150 μL are removed from the donor and the acceptor side after about 1 and 120 min. Transport experiments in both apical-to-basolateral and basolateral-to-apical directions are performed in triplicate at 37° C. in an incubator without shaking.
(§3) The suitability of Caco-2 cells for transport experiments is examined by measuring the permeability of [^3H]-mannitol at >0.1 μM and [^3H]-propranolol at >0.1 μM from apical to basolateral sides for 120 min in a total of 6 representative cell monolayers (3 for each compound) within the same batch of cells.
(§4) Radioactive samples are analyzed by liquid scintillation counting. All other non-radiolabeled samples are kept frozen at −20° C. until analysis by liquid chromatography/tandem mass spectrometry (LC-MS/MS).
(§5) Transport values of the compounds tested are determined using the following equation (Artursson et al., Biochem. Biophys. Res. Comm. 175: 880-885, 1991):
(§6) Papp values are presented as means ± standard deviations of the transport experiments performed (n=3). The statistical significance in differences between any two given data sets is examined by t-test. The probability level for assignment of significance of difference is p<0.025. All statistical analyses were performed using Microsoft EXCEL 5.0c.

[2] = In situ bile-duct cannulated rat experiment (biliary clearance); details: for effect on 14C concentration in plasma: i.v. bolus of inhibitor (PSC833 10 mg/kg, probenecid 50 mg/kg) during constant infusion of [14C]-SPP100 hemifumarate
Experimental: The effect in situ of co-administration of an efflux protein inhibitor, e.g., a MDR1 inhibitor, on the biliary excretion of a renin inhibitor may be investigated by comparing the amount of compound excreted into bile, in the presence and the absence of an efflux protein inhibitor.
The animals that may be used are, e.g., male albino HAN:WIST rats, 4 to 5 animals in each treatment group.
For all treatment groups blood samples are collected at 0.5, 1, 1.33, 1.67, 2, 2.33, 2.67, 3 h after treatment and blood is immediately processed to plasma. Bile is collected for the time frame of 1 to 3 h in intervals of 20 min.
• for total radioactivity in all samples: LSC; LOQ 3.4 μg/L for plasma and bile; and • for detection of metabolite pattern in selected pools of samples: HPLC with radioactivity detection.

[3] = system: Caco-2 cell monolayers; test: in vitro; details: human, Caco-2, 120 min
From the text: as §1, §2, §3, §4, §5, §6

[4] = In vivo bioavailability experiment, single oral administration; set-up: species or system rat; details: for Cmax / Tmax: male, HAN:WIST, rat, plasma, po
From the text: Similarly, the effect in vivo of co-administration of an efflux protein inhibitor, e.g., a MDR1 inhibitor, on the bioavailability of a renin inhibitor may be investigated by comparing the pharmacokinetic parameters, Cmax and AUCs, in the presence and the absence of an efflux protein inhibitor.
The animals that may be used are, e.g., male albino HAN:WIST rats, 5 animals in each treatment group.
Plasma is used for biochemical analysis.

[5] = system: T1, COCCCOc1cc(C[C@@H](C[C@H](N)[C@@H](O)C[C@H](C(=O)NCC(C)(C)C(N)=O)C(C)C)C(C)C)ccc1OC; test: ATPase assay in membrane vesicles expressing high levels of MDR1; type: biochemical, human; details: other: membrane vesicles expressing high levels of MDR1; pH 7.4; 37.0 °C
T1 construct: host or cells: Sf9 (Spodoptera frugiperda) membrane vesicles
From the text: The efflux protein(s) involved in the drug efflux of a drug substance may be identified, and the corresponding kinetic parameters may be determined, i.e., Michaelis-Menten Constant and Maximal Drug Transport (Km and Jmax) using methods known in the art, e.g., by an ATPase assay using Sf9 (Spodoptera fruigiperda) membrane vesicles expressing high levels of the selected ABC transporter. In this assay the ABC transporters remove substrates out of cells by using ATP hydrolysis as an energy source. ATP hydrolysis yields inorganic phosphate (Pi), which can be detected by a simple colorimetric reaction. The amount of Pi liberated by the transporter is proportional to the activity of the transporter. Membrane preparations containing ABC transporters show a baseline ATPase activity that varies for different transporters. […]
Efflux mediated by the human MDR1, the human MRP1 or the human MRP2 is measured by incubating the purified membrane vesicles in the absence and the presence of a stimulating agent (Verapamil [40 μM] for MDR1, NEM-GS [10 mM] for MRP1 and Probenecid [1 mM] for MRP2) with different concentrations of a drug substance [0.046, 0.137, 0.41, 1.23, 3.7, 11.1, 33.3 and 100 μM] in transport buffer at pH 7.4 at 37° C. […]
After incubating the OD is measured at 730 nm. Using a previously determined phosphate standard curve the Pi liberated [nmol/well] can be calculated. […]

[6] = 6 mg base/kg, rat plasma, oral SPP100 hemifumarate 6 mg base/kg + vehicle
[7] = 6 mg/kg, oral SPP100 6 mg base/kg + PSC833 5 mg/kg
[8] = 6 mg/kg, oral SPP100 6 mg base/kg + PSC833 12.5 mg/kg
[9] = 6 mg/kg, oral SPP100 6 mg base/kg + PSC833 25 mg/kg
[10] = 6 mg/kg, oral SPP100 6 mg base/kg + PSC833 50 mg/kg
[11] = probenecid 50 mg/kg i.v. during constant infusion of [14C]-SPP100 hemifumarate

Papp A→B at 120 min [1]: < 0.5 ×10⁻⁶ cm/s
Compound: OC[C@@H](O)[C@@H](O)[C@H](O)[C@H](O)CO [Mannitol, reference compound]

effect on 14C concentration in bile ([2]; PSC833 10 mg/kg i.v. during constant infusion of [14C]-SPP100 hemifumarate): significant decrease
effect on 14C concentration in plasma [2]: trend towards a time dependent increase
biliary clearance of [14C]-labeled compounds, % of the value obtained before administration ([2]; i.v. bolus of inhibitor during constant i.v. infusion of [14C]-SPP100 hemifumarate, PSC833 10 mg/kg): approximately 7%
Compound: C/C=C/C[C@@H](C)C(=O)[C@H]1C(=O)N[C@@H](C(C)C)C(=O)N(C)CC(=O)N(C)[C@@H](CC(C)C)C(=O)N[C@@H](C(C)C)C(=O)N(C)[C@@H](CC(C)C)C(=O)N[C@@H](C)C(=O)N[C@H](C)C(=O)N(C)[C@@H](CC(C)C)C(=O)N(C)[C@@H](CC(C)C)C(=O)N(C)[C@@H](C(C)C)C(=O)N1C [PSC833]

Papp A→B at 120 min [1]: < 15 ×10⁻⁶ cm/s
Compound: CC(C)NCC(O)COc1cccc2ccccc12 (centres unmarked) [Propranolol, reference compound]

Papp A→B at 120 min, 1 μM [1]: ~0.0333 ×10⁻⁶ cm/s
Papp A→B at 120 min, 10 µM [1]: ~1.17 ×10⁻⁶ cm/s
Papp B→A at 120 min, 1 µM [1]: ~1.67 ×10⁻⁶ cm/s
intrinsic permeability [3]: < 80%
Cmax [4, 6]: ~24.8 ng/mL
Tmax [4, 6]: 0.44 ± 0.1 h
Cmax [4, 7]: 35.7 ± 18 ng/mL
Tmax [4, 7]: 4.8 ± 1.8 h
Cmax [4, 8]: 115 ± 93 ng/mL
Tmax [4, 8]: 4.95 ± 4.2 h
Cmax [4, 9]: 81.4 ± 19 ng/mL
Tmax [4, 9]: 15.2 ± 18 h
Cmax [4, 10]: 26.7 ± 18 ng/mL
Tmax [4, 10]: 3.06 ± 1.9 h
dose-normalized AUC(0-tlast), times higher than in the vehicle group ([4]; oral SPP100 6 mg base/kg + PSC833 5 mg/kg): about 23 times
dose-normalized AUC(0-tlast), times higher than in the vehicle group ([4]; oral SPP100 6 mg base/kg + PSC833 12.5 mg/kg): ~69 times
dose-normalized AUC(0-tlast), times higher than in the vehicle group ([4]; oral SPP100 6 mg base/kg + PSC833 25 mg/kg): ~76 times
dose-normalized AUC(0-tlast), times higher than in the vehicle group ([4]; oral SPP100 6 mg base/kg + PSC833 50 mg/kg): ~17 times
increase of dose-normalized AUC(0-tlast) compared to control group solely dosed with SPP100 ([4]; orally dosed rats, in the presence of PSC833): about 70 fold
dose-normalized AUC(0-tlast) ([4]; rat plasma, oral SPP100 hemifumarate 6 mg base/kg + vehicle): 2.38±3.4 (ng*h/mL)/(mg/kg)
Compound: COCCCOc1cc(C[C@@H](C[C@H](N)[C@@H](O)C[C@H](C(=O)NCC(C)(C)C(N)=O)C(C)C)C(C)C)ccc1OC [SPP100, (2S,4S,5S,7S)-5-amino-4-hydroxy-2-isopropyl-7-[4-methoxy-3-(3-methoxy-propoxy)-benzyl]-8-methyl-nonanoic acid (2-carbamoyl-2-methyl-propyl)-amide hemifumarate]

effect on 14C concentration in plasma [2]: no effect
biliary clearance before and after administration [2, 11]: similar
decrease of the [14C] concentration in bile vs value prior to administration [2, 11]: about 40%
Compound: CCCN(CCC)S(=O)(=O)c1ccc(C(=O)O)cc1 [probenecid]

Compound: human MDR1 (Homo sapiens)
Km [5]: 3 µM
